The target of test [1] is T1, Type-1 angiotensin II receptor (Oryctolagus cuniculus, UniProt P34976).
T1 sequence (P34976 whole entry): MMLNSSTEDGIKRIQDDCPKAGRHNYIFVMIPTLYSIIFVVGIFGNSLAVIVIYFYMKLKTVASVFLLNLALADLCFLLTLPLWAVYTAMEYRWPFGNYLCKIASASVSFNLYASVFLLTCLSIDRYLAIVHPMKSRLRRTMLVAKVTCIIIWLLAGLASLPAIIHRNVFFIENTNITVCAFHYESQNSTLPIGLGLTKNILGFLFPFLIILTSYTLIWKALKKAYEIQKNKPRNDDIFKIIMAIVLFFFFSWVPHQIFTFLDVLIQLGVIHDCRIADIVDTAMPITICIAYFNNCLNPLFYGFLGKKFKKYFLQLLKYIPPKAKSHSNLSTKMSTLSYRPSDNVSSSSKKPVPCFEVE
Nature of the test: In vitro binding affinity evaluated by its ability to displace the specific binding ligand 125I-SAR1, Ile8-AII from Angiotensin II receptor, type 1 in rabbit aorta membrane. The test is classed as cell membranes.

The target of test [2] is T2, Type-2 angiotensin II receptor (Rattus norvegicus, UniProt P35351).
T2 sequence (P35351 whole entry): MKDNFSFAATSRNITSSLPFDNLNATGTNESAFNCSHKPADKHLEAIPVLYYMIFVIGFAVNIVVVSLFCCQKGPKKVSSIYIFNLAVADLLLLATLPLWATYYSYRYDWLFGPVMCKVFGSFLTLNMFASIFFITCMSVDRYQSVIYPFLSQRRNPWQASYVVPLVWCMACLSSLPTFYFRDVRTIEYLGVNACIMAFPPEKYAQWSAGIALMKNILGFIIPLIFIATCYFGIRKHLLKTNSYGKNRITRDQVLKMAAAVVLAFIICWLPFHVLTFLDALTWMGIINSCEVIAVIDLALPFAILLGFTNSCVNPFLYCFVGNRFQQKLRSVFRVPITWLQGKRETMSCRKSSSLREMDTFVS
In words: In vitro binding affinity at AT2 receptor determined by its ability to displace the specific binding ligand [125I]-Sar1, Ile8-AII from rat brain membrane.

The subject of test [3] is Rattus norvegicus. Nature of the test: Dose required for more than 90% maximal inhibition of blood pressure response at iv bolus administration in conscious normotensive rats. The test is classed as functional.
The species entered for test [4] is Rattus norvegicus. In words: Percent inhibition exceeded duration of 6 hours. In kind it is functional.

For `CCc1nc2c(C)cc(C)nn2c1Cc1ccc(-c2ccccc2NS(=O)(=O)C(F)(F)F)cc1`, the IC50 in test [1] is 1.7 nM.
Take `CCc1nc2c(C)cc(C)nn2c1Cc1ccc(-c2ccccc2S(=O)(=O)NC(=O)c2ccccc2)cc1`: in test [1], the half-maximal inhibitory concentration (IC50) was 0.8 nM.
Turning to `CCc1nc2c(C)cc(C)nn2c1Cc1ccc(-c2ccccc2-c2nn[nH]n2)cc1`, the results for the concentration for half-maximal inhibition (IC50) in test [2] and in test [1] were over 10 nM and 5.7 nM, respectively. The same compound came in with a Dose in the test with Rattus norvegicus [3] of 1 mg/kg. This compound registered an Inhibition in the test filed under Rattus norvegicus [4] of over 30%.
Turning to `CCc1nc2c(C)cc(C)nn2c1Cc1ccc(-c2ccccc2C(=O)O)cc1`, the IC50 in test [1] turned out to be 83 nM.
